Source: patent publication US20210196714A1, “COMPOSITIONS AND METHODS FOR TREATING DISORDERS CHARACTERIZED WITH ABERRANT RAS/MAPK SIGNALING” (Duke University, priority 2018, published 2021)
Entries after “also recorded” stand apart in the source; their conditions may differ.

Experiments:
[1] = system: zebrafish kmt2d morphants; assay: Rescue of convergent-extension (CE) phenotype in kmt2d morphants; type: in vivo; details: 100 nM; for rescue of CE defects, repeated experiments: repeated four times by two investigators; for proportion of embryos showing CE defects vs vehicle (DMSO): primary screen, kmt2d-MO, 8-10 somite stage
Description: FIG. 1: In vivo screen using BRAF/MEK/ERK inhibitors. (a) Flow chart of the experimental design. We started the screening with 29 compounds (27 active BRAF/MEK/ERK inhibitors, and 2 negative controls). 26 compounds passed the solubility test and 24 of those passed the toxicity test. For the primary screen, 24 compounds were assessed for their ability to rescue the convergent-extension (CE) phenotype of zebrafish kmt2d morphants, followed by rescue tests of additional phenotypes (jaw and brain) within the kmt2d morphant, or CE of additional genetic KS models. (b) Toxicity results. Twenty embryos at the 8-cell stage were incubated in egg water containing 100 nM, 1 μM, and 10 μM of the 26 compounds. After 24 hours, larvae were scored for toxicity. Black bar: death; grey bar: abnormal morphology; white bar: nontoxic. (c) Embryos were injected with kmt2d-MO at the 2-4 cell stage and soaked in egg water containing 100 nM of each compound at the 8-cell stage. After 24 hours, larvae were scored for CE. […] The efficacy of each compound was determined by a chi-square test in which Class I and Class II were considered together. Note that the compounds were tested in two groups (compounds 1-19 and compounds 20-29), each with its own set of controls.
This library was screened against validated transient suppression reagent for kmt2d. Experiments injected kmt2d-morpholino (MO) into one- to two-cell-stage embryos and soaked them in egg water containing 100 nM of each compound approximately one hour after injection (eight-cell stage).
Morpholinos (MO) were obtained from Gene Tools (Gene Tools, LLC, Philomath, Oreg., USA) and have been described previously (see, Bogershausen, N. et al. J Clin Invest 125, 3585-99 (2015)); kmt2d-MO: 5′-[…]-3′(SEQ ID NO: 1) (5 ng); kdm6a-MO: 5′-[…] (SEQ ID NO: 2) (10 ng). kmt2d-MO and kdm6a-MO was injected into wild type (WT) Ekkwill (EK) zebrafish embryos obtained from natural matings at the 1-4 cell stage. CRISPR target sequences (rap1a: 5′-[…]-3′ (SEQ ID NO: 3) [120 pg], rap1b: 5′-[…]-3′ (SEQ ID NO: 4) [120 pg] (see, Bogershausen, N. et al. J Clin Invest 125, 3585-99 (2015)), and kmt2d: 5′-[…] (SEQ ID NO: 5) [50 pg]) were identified by crispr.mit.edu and cloned into pT7-gRNA (Addgene, Cambridge, USA) following the protocol described in http://www.addgene.org/crispr/Chen/. Guide (g)RNAs were synthesized using the T7 MEGAshortscript kit (ThermoFisher Scientific). […]
For convergence and extension (CE) phenotyping, embryos were scored as described (see, Leitch, C. C. et al. Nat Genet 40, 443-8 (2008)) at the 8-10 somite stage, and images were captured using an AZ100 microscope and NIS Elements software (Nikon). […] The distance between Meckel's (MK) and ceratohyal (CH) cartilages was measured on ventral bright field images with Image J (NIH). […]

rap1-CRISPR embryos = assay: Jaw defect (MK-CH distance) in rap1-CRISPR embryos; type: in vivo, zebrafish; details: rap1 F0 CRISPR mutant, 100 nM, 5 dpf
Description: (§1) FIG. 4: Compound 8 ameliorates the CE and jaw defects caused by loss of rap/and kdm6a. (a) gRNA targeting both zebrafish rap1a and rap1b were injected into embryos at the 1-cell stage with Cas9 protein. Larvae were incubated with compound 8 (100 nM) at the 8-cell stage and scored for micrognathia. 5 dpf larvae were stained with Alcian blue to assess the layout of the jaw cartilage. In comparison to control embryos (top), rap1-CRISPR embryos have smaller jaws. […] (b) Quantitative measurement of the distance between MK and CH cartilages. (c) Larvae were scored for CE (n>30 for each concentration). (d) 5 dpf embryos were stained with Alcian blue to assess the layout of jaw cartilage. […] (e) Quantitative measurement of the distance between MK and CH cartilages. *p<0.05; ***p<0.001. […]
(§2) For convergence and extension (CE) phenotyping, embryos were scored as described (see, Leitch, C. C. et al. Nat Genet 40, 443-8 (2008)) at the 8-10 somite stage, and images were captured using an AZ100 microscope and NIS Elements software (Nikon). […] The distance between Meckel's (MK) and ceratohyal (CH) cartilages was measured on ventral bright field images with Image J (NIH). […] Fluorescence signal on embryo heads was imaged with the Nikon AZ100 microscope and DS-Qi1MC digital camera using […] Z-stacks to generate extended depth of focus images. Cell numbers were quantified using the ImageJ ICTN plugin (NIH). […]

kdm6a-MO embryos = assay: Jaw defect (MK-CH distance) in kdm6a-MO embryos; type: in vivo, zebrafish; details: kdm6a morphant, 5 dpf
Description: as §1, §2

| Compound | rescue of CE defects, repeated experiments [1] | proportion of embryos showing CE defects vs vehicle (DMSO) [1] | jaw length / MK-CH distance (rap1-CRISPR embryos) | jaw length / MK-CH distance (kdm6a-MO embryos) |
| --- | --- | --- | --- | --- |
| CC(C)c1nc(-c2cccc(NS(=O)(=O)c3c(F)cccc3F)c2F)c(-c2ccnc(N)n2)s1 [Compound 8, desmethyl-Dabrafenib] | rescue CE defects; also recorded: consistent and significant rescue | decreased the proportion of embryos showing CE defects | can be ameliorated; also recorded: restored significantly the jaw length of morphants and mutants to nearly wild type levels | can be ameliorated; also recorded: restored significantly the jaw length of morphants and mutants to nearly wild type levels |
| CC[C@@H](CO)Nc1ncc(C)c(-c2c[nH]c(C(=O)N[C@H](CO)c3cccc(Cl)c3)c2)n1 [Compound 2, N-((S)-1-(3-chlorophenyl)-2-hydroxyethyl)-4-(2-(((S)-1-hydroxybutan-2-yl)amino)-5-methylpyrimidin-4-yl)-1H-pyrrole-2-carboxamide] | rescue CE defects; also recorded: consistent and significant rescue | decreased the proportion of embryos showing CE defects | can be ameliorated; also recorded: restored significantly the jaw length of morphants and mutants to nearly wild type levels | restored significantly the jaw length of morphants and mutants to nearly wild type levels |
